Test results reported in the kinase profiling compilation of Christmann-Franck et al. (2016).

Legend:
Assay in all cases: radiometric filter-binding kinase assay, Kinase HotSpot
Settings in all cases: compound 0.5 µM; ATP 10 µM
SRPK3 (human) = SRPK3 (human) (UniProt Q9UPE1)
INSR (human) = INSR (human) (UniProt P06213)
FYN (human) = FYN (human) (UniProt P06241)
ADRBK2 (human) = ADRBK2 (human) (UniProt P35626)
EPHA8 (human) = EPHA8 (human) (UniProt P29322)
TTK (human) = TTK (human) (UniProt P33981)
STK24 (human) = STK24 (human) (UniProt Q9Y6E0)
TGFBR2 (human) = TGFBR2 (human) (UniProt P37173)
FGFR1 (human) = FGFR1 (human) (UniProt P11362)
CAMK2A (human) = CAMK2A (human) (UniProt Q9UQM7)
CAMK2A (human), sequence (Q9UQM7 whole entry, looked up): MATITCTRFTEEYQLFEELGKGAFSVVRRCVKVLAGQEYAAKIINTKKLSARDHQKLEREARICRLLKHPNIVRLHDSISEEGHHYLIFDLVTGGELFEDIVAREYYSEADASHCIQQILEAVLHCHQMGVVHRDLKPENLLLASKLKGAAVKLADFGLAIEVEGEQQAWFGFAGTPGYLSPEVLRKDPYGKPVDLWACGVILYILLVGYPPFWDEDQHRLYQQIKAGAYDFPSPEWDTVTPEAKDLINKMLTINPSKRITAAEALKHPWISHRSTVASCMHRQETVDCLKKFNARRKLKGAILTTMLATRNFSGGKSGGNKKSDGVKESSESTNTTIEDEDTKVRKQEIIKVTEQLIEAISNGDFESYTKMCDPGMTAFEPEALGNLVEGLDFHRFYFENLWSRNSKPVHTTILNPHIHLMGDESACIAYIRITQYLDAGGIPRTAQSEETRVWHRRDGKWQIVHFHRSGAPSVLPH

CAMK2G (human) = CAMK2G (human) (UniProt Q13555)
MARK1 (human) = MARK1 (human) (UniProt Q9P0L2)
PRKX (human) = PRKX (human) (UniProt P51817)
PRKX (human), sequence (P51817 whole entry, looked up): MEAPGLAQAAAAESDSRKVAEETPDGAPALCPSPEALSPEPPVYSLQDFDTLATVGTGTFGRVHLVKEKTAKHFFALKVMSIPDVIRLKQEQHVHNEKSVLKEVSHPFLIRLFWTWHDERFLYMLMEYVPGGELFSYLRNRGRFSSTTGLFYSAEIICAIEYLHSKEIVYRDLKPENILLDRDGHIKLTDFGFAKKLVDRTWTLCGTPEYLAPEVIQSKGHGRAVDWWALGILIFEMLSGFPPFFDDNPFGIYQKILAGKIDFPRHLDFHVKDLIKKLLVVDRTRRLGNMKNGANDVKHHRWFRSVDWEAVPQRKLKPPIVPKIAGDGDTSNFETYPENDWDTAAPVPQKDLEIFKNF

PTK6 (human) = PTK6 (human) (UniProt Q13882)
MUSK (human) = MUSK (human) (UniProt O15146)
NEK7 (human) = NEK7 (human) (UniProt Q8TDX7)
NEK7 (human), sequence (Q8TDX7 whole entry, looked up): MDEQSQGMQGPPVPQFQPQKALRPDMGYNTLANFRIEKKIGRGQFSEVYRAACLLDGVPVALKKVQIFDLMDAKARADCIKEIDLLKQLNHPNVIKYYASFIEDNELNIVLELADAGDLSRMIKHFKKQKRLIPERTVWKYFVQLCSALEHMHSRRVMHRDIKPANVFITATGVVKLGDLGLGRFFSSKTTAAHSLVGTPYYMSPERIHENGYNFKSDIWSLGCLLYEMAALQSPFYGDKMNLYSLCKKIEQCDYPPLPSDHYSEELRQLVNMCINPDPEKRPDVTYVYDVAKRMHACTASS

OXSR1 (human) = OXSR1 (human) (UniProt O95747)
OXSR1 (human), sequence (O95747 whole entry, looked up): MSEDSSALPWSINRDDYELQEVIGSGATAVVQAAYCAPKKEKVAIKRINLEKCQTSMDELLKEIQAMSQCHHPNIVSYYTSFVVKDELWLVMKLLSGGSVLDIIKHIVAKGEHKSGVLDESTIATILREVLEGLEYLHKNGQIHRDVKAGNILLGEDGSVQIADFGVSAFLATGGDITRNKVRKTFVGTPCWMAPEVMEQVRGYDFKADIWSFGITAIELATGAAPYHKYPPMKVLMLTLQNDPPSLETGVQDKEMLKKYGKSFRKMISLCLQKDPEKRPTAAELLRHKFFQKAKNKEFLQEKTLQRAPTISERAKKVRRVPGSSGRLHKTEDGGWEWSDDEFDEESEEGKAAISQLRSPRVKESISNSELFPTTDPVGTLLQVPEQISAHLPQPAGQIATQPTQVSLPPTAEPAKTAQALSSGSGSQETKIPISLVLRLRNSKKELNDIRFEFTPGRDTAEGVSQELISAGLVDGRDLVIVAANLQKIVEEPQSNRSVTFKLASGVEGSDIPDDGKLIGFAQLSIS

CSNK1G2 (human) = CSNK1G2 (human) (UniProt P78368)
PTK2 (human) = PTK2 (human) (UniProt Q05397)
NUAK2 (human) = NUAK2 (human) (UniProt Q9H093)
NUAK2 (human), sequence (Q9H093 whole entry, looked up): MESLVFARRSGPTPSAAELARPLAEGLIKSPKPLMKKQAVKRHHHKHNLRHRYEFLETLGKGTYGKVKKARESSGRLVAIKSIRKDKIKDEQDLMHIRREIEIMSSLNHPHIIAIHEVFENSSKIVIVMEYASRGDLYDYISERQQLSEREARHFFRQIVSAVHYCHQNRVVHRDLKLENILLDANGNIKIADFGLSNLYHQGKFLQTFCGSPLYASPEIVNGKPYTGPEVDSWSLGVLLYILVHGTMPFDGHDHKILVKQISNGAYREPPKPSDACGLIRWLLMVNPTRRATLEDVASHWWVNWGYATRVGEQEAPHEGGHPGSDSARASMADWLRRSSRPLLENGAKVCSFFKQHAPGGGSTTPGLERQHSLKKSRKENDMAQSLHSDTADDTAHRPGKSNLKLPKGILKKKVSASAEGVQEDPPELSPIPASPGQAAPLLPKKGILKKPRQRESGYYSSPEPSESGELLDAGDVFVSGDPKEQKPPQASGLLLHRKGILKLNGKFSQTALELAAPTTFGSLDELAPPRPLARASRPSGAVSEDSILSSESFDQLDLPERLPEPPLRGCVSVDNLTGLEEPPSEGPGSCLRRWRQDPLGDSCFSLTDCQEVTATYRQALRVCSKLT

NTRK3 (human) = NTRK3 (human) (UniProt Q16288)
MAP4K5 (human) = MAP4K5 (human) (UniProt Q9Y4K4)
PRKG2 (human) = PRKG2 (human) (UniProt Q13237)
DYRK3 (human) = DYRK3 (human) (UniProt O43781)
MATK (human) = MATK (human) (UniProt P42679)
MATK (human), sequence (P42679 whole entry, looked up): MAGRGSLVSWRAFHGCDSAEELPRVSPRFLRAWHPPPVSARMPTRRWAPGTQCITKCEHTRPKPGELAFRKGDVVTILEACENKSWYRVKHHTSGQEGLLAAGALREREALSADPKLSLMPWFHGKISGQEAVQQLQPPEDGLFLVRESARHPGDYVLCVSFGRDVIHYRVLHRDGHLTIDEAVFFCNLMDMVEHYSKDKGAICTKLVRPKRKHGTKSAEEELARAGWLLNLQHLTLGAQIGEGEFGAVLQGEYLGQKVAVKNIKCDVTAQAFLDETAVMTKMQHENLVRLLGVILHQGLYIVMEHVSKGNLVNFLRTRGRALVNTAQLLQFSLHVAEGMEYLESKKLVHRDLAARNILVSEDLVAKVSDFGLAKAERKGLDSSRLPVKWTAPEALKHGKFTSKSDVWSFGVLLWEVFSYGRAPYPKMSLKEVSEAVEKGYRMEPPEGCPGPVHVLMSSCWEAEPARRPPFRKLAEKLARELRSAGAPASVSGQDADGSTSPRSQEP

MAPK9 (human) = MAPK9 (human) (UniProt P45984)
NEK6 (human) = NEK6 (human) (UniProt Q9HC98)
NEK6 (human), sequence (Q9HC98 whole entry, looked up): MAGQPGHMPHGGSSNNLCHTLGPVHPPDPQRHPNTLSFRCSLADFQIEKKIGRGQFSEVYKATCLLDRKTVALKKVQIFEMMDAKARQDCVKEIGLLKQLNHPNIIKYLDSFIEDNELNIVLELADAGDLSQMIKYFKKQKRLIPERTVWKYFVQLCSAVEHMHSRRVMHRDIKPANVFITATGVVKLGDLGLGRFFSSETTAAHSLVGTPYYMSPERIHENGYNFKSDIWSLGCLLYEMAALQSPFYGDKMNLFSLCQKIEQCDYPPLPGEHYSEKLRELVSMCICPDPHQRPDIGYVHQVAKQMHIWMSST

MST4 (human) = MST4 (human) (UniProt Q9P289)
IKBKE (human) = IKBKE (human) (UniProt Q14164)
CDC42BPB (human) = CDC42BPB (human) (UniProt Q9Y5S2)
HCK (human) = HCK (human) (UniProt P08631)
SLK (human) = SLK (human) (UniProt Q9H2G2)
MET (human) = MET (human) (UniProt P08581)
PIM1 (human) = PIM1 (human) (UniProt P11309)
RIPK2 (human) = RIPK2 (human) (UniProt O43353)
CAMK4 (human) = CAMK4 (human) (UniProt Q16566)
RPS6KA6 KD1 KD2 (human) = RPS6KA6 KD1 KD2 (human) (UniProt Q9UK32)
EPHA3 (human) = EPHA3 (human) (UniProt P29320)
NEK1 (human) = NEK1 (human) (UniProt Q96PY6)
NEK1 (human), sequence (Q96PY6 whole entry, looked up): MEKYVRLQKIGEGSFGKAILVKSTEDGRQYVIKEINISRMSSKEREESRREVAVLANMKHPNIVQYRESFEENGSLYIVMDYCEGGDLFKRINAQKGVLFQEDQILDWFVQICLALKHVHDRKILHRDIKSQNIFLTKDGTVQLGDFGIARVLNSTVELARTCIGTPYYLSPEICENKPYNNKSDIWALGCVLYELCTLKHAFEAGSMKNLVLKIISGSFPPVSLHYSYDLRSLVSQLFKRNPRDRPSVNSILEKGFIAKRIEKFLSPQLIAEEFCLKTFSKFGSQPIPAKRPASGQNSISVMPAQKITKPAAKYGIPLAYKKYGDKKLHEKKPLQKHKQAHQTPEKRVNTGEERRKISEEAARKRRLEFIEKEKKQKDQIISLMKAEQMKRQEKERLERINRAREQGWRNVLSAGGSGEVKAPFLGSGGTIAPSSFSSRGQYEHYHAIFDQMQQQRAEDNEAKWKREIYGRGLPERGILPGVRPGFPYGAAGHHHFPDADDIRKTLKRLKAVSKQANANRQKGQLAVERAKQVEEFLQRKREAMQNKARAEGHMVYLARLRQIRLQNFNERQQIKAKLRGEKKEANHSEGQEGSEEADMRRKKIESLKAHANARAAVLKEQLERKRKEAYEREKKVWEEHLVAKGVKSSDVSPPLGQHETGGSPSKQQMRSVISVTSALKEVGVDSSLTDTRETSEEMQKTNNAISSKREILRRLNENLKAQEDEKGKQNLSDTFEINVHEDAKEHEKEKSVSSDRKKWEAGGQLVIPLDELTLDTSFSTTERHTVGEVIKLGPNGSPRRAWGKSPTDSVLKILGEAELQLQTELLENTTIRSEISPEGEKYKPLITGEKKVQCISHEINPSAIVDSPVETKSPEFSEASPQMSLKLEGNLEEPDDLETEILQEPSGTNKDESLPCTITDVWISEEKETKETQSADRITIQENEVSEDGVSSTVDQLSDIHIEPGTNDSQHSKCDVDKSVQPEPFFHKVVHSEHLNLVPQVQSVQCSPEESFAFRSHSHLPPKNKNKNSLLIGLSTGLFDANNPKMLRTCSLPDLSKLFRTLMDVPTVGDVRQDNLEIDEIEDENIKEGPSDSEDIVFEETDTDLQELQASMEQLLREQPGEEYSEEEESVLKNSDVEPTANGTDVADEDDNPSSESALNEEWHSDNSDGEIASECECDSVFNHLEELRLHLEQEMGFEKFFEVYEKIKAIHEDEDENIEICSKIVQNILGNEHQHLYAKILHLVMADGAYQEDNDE

EPHA2 (human) = EPHA2 (human) (UniProt P29317)
PRKCB1 (human) = PRKCB1 (human) (UniProt P05771)
PAK2 (human) = PAK2 (human) (UniProt Q13177)

SRPK3 (human), sequence (Q9UPE1 whole entry, looked up): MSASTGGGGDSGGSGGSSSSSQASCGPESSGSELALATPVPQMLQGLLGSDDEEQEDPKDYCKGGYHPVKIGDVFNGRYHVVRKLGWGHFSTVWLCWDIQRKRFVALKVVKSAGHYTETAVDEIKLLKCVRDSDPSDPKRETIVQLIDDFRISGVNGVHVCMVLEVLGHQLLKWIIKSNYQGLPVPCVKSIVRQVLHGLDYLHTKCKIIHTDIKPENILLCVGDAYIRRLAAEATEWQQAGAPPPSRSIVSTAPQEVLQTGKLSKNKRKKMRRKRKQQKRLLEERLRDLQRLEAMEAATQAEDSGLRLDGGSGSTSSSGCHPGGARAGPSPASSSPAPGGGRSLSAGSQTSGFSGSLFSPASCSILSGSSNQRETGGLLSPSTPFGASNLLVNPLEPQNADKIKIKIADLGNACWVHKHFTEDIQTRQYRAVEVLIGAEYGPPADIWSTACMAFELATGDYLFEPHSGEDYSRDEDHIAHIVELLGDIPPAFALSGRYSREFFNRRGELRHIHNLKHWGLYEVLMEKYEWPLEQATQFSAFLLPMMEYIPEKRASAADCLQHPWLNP

CCN(CC)C(=O)c1ccc(Nc2nc(OCC3CCCCC3)c3nc[nH]c3n2)cc1
residual activity (SRPK3 (human)): 68.1% | residual activity (INSR (human)): 92.8% | residual activity (FYN (human)): 62.6% | residual activity (ADRBK2 (human)): 92.7% | residual activity (EPHA8 (human)): 92.1% | residual activity (TTK (human)): 47.8% | residual activity (STK24 (human)): 84.5% | residual activity (TGFBR2 (human)): 75.4% | residual activity (FGFR1 (human)): 72.8% | residual activity (CAMK2A (human)): 105% | residual activity (CAMK2G (human)): 95.2% | residual activity (MARK1 (human)): 82.7% | residual activity (PRKX (human)): 93.4% | residual activity (PTK6 (human)): 30.7% | residual activity (MUSK (human)): 77.5% | residual activity (NEK7 (human)): 103% | residual activity (OXSR1 (human)): 99% | residual activity (CSNK1G2 (human)): 59.8% | residual activity (PTK2 (human)): 76.9% | residual activity (NUAK2 (human)): 23.1% | residual activity (NTRK3 (human)): 32.3% | residual activity (MAP4K5 (human)): 78% | residual activity (PRKG2 (human)): 80% | residual activity (DYRK3 (human)): 97.6% | residual activity (MATK (human)): 95.6% | residual activity (MAPK9 (human)): 60.8% | residual activity (NEK6 (human)): 101% | residual activity (MST4 (human)): 84.9% | residual activity (IKBKE (human)): 77.9% | residual activity (CDC42BPB (human)): 99.3% | residual activity (HCK (human)): 63.1% | residual activity (SLK (human)): 71.2% | residual activity (MET (human)): 85.3% | residual activity (PIM1 (human)): 95.6% | residual activity (RIPK2 (human)): 97.2% | residual activity (CAMK4 (human)): 97.7% | residual activity (RPS6KA6 KD1 KD2 (human)): 46.2% | residual activity (EPHA3 (human)): 99.9% | residual activity (NEK1 (human)): 53.1% | residual activity (EPHA2 (human)): 90.6% | residual activity (PRKCB1 (human)): 103%

COc1ccc2c(c[n+](C)c3c4cc5c(cc4ccc23)OCO5)c1OC
residual activity (SRPK3 (human)): 96.1% | residual activity (INSR (human)): 94.9% | residual activity (FYN (human)): 101% | residual activity (ADRBK2 (human)): 88.4% | residual activity (EPHA8 (human)): 100% | residual activity (TTK (human)): 101% | residual activity (STK24 (human)): 84.2% | residual activity (TGFBR2 (human)): 71.6% | residual activity (FGFR1 (human)): 96% | residual activity (CAMK2A (human)): 99.5% | residual activity (CAMK2G (human)): 95.9% | residual activity (MARK1 (human)): 91.4% | residual activity (PRKX (human)): 95.1% | residual activity (PTK6 (human)): 94.4% | residual activity (MUSK (human)): 98.2% | residual activity (NEK7 (human)): 98.9% | residual activity (OXSR1 (human)): 94.8% | residual activity (PAK2 (human)): 101% | residual activity (CSNK1G2 (human)): 96.8% | residual activity (PTK2 (human)): 102% | residual activity (NUAK2 (human)): 98.9% | residual activity (NTRK3 (human)): 95.2% | residual activity (MAP4K5 (human)): 89.3% | residual activity (PRKG2 (human)): 68.7% | residual activity (DYRK3 (human)): 101% | residual activity (MATK (human)): 89.5% | residual activity (MAPK9 (human)): 102% | residual activity (NEK6 (human)): 104% | residual activity (MST4 (human)): 89.4% | residual activity (IKBKE (human)): 101% | residual activity (CDC42BPB (human)): 107% | residual activity (SLK (human)): 87.4% | residual activity (MET (human)): 94.7% | residual activity (PIM1 (human)): 97% | residual activity (RIPK2 (human)): 105% | residual activity (CAMK4 (human)): 99.9% | residual activity (RPS6KA6 KD1 KD2 (human)): 91.1% | residual activity (EPHA3 (human)): 94.9% | residual activity (NEK1 (human)): 91.3% | residual activity (EPHA2 (human)): 97.4% | residual activity (PRKCB1 (human)): 100%
